This is an account of results in patent publication US9586963B2 (GENFIT, priority 2011, dated 2017).

One data set addresses T1, Rev-Erb alpha (Homo sapiens, UniProt P20393).
T1 sequence (P20393 284-614 limits assumed): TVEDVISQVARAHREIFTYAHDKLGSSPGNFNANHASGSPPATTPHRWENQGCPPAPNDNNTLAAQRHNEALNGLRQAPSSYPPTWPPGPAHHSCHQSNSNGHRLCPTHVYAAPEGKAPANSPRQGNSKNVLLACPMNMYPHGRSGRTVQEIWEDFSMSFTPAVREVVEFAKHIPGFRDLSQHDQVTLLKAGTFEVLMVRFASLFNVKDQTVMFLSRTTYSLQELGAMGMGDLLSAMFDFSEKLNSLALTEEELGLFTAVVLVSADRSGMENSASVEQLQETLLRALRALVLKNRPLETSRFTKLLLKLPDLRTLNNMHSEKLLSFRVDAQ
The experiment in a line: M2H (mammalian two-hybrid) cellular activation assay of Rev-Erb alpha. It is filed as cell-based. The following applies: M2H assay, HEK293 cells; for EC50: Gal4-Rev-Erb alpha / VP16-NCoR, luciferase reporter. In outline: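 Six-point dose-response, 18 h, 37 °C, serum-free, in HEK293 cells carrying a Gal4-RE luciferase reporter with Gal4-Rev-Erb alpha or beta plus VP16-NCoR (corepressor interaction readout). EC50 and TOP activation (%) derived from luminescence across four experiments.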
On the technique in general: A reporter such as luciferase makes a cellular process visible.

Counter-ions that a name gives are not always drawn.

As usually defined, the melting point is the temperature of the solid-liquid transition. What is called EC50 is the concentration that produces a half-maximal response. A lower EC50 goes with greater potency. Take `Nc1cccc(-c2cc(F)ccc2Oc2ccc3nnc(Cl)n3n2)c1` [Cpd.4-119, 3-chloro-6-(3′-amino-5-fluorobiphenyl-2-yloxy)-[1,2,4]triazolo[4,3-b]pyridazine]: the melting point was determined as 248.2 °C. The molecule also displayed an EC50 at Rev-Erb alpha of 1000 to 6000 nM.

Consider `Clc1ccc(Oc2ccc3nnc(Cl)n3n2)c(-c2cncnc2)c1` [Cpd.4-194, 3-chloro-6-(4-chloro-2-(pyrimidin-5-yl)phenoxy)-[1,2,4]triazolo[4,3-b]pyridazine], for which the melting point lay within 152 to 155 °C. At Rev-Erb alpha, this molecule showed an EC50 of over 6000 nM. In addition, on Rev-Erb alpha (relative to DMSO, at the tested dose, read-out: TOP activation), the Emax was over 130%.

`COc1cccc(-c2cccc(Oc3ccc4nnc(Cl)n4n3)c2)c1` [Cpd.3-14, 3-chloro-6-(3′-methoxybiphenyl-3-yloxy)-[1,2,4]triazolo[4,3-b]pyridazine] had a melting point of 91.46 °C. This molecule also displayed an EC50 at Rev-Erb alpha of 1000 to 6000 nM.

For `Cc1cc(Oc2cc(C(F)(F)F)ccc2-c2cncnc2)nn2c(C(F)(F)F)nnc12` [Cpd.5-63, 8-methyl-6-(2-(pyrimidin-5-yl)-5-(trifluoromethyl)phenoxy)-3-(trifluoromethyl)-[1,2,4]triazolo[4,3-b]pyridazine], the melting point was in the range of 167 to 172 °C. In addition, the EC50 on Rev-Erb alpha was 1000 to 6000 nM.

`OCc1ccc(Oc2ccc3nnc(Cl)n3n2)c(-c2ccccc2)c1` (as salt: sodium) [Cpd.4-66, 3-chloro-6-(5-hydroxymethyl-biphenyl-2-yloxy)-[1,2,4]triazolo[4,3-b]pyridazine] came in with a melting point of 72 °C.

For the molecule `Clc1nnc2ccc(Oc3ccc(CNC4CC4)cc3-c3ccccc3)nn12` [Cpd.4-161, 3-chloro-6-(5-(cyclopropylaminomethyl)biphenyl-2-yloxy)-[1,2,4]triazolo[4,3-b]pyridazine], the melting point was 62.2 to 64.9 °C. This molecule had an EC50 at Rev-Erb alpha of 1000 to 6000 nM.

Molecule `Clc1nnc2ccc(Oc3cc(CN4CCCCC4)ccc3-c3ccccc3)nn12` [Cpd.4-183, 3-chloro-6-(4-piperidin-1-ylmethylbiphenyl-2-yloxy)-[1,2,4]triazolo[4,3-b]pyridazine] had a melting point of 163 to 164 °C. At Rev-Erb alpha, this molecule had an EC50 of 1000 to 6000 nM.

With `Fc1ccccc1-c1ccccc1Oc1ccc2nnc(Cl)n2n1` [Cpd.4-17, 6-(2′-fluoro-biphenyl-2-yloxy)-3-chloro-[1,2,4]triazolo[4,3-b]pyridazine], the melting point was determined as 95.9 °C. On Rev-Erb alpha, the EC50 fell in the range of 100 to 1000 nM.

`COc1ncc(-c2cc(Cl)ccc2Oc2cc(C)c3nnc(Cl)n3n2)cn1` [Cpd.5-55, 3-chloro-6-(4-chloro-2-(2-methoxypyrimidin-5-yl)phenoxy)-8-methyl-[1,2,4]triazolo[4,3-b]pyridazine] had a melting point of 170 to 172 °C. Also, the concentration for a half-maximal effect (EC50) at Rev-Erb alpha was in the range of 1000 to 6000 nM.

`FC(F)(F)c1ccc(-c2cncnc2)c(Oc2nn3cnnc3c3ccccc23)c1` [Cpd.5-64, 6-(2-(pyrimidin-5-yl)-5-(trifluoromethyl)phenoxy)-[1,2,4]triazolo[3,4-a]phthalazine] yielded a melting point of 220 to 230 °C. On Rev-Erb alpha, the EC50 lay in the range of 1000 to 6000 nM.

As to `Clc1ccccc1-c1cccc(Oc2ccc3nnc(Cl)n3n2)c1` [Cpd.3-11, 6-(2′-chloro-biphenyl-3-yloxy)-3-chloro-[1,2,4]triazolo[4,3-b]pyridazine], the melting point worked out at 82.4 °C. For the same molecule, at Rev-Erb alpha, the EC50 was in the range of 1000 to 6000 nM.

Turning to `Clc1ccc(-c2ccccc2Oc2ccc3nnc(Cl)n3n2)cc1` [Cpd.4-117, 3-chloro-6-(4′-chlorobiphenyl-2-yloxy)-[1,2,4]triazolo[4,3-b]pyridazine], the melting point came out at 173 °C. Moreover, on Rev-Erb alpha, the half-maximal effective concentration (EC50) was 100 to 1000 nM.

Regarding `COc1nccc(C)c1-c1ccc(C(F)(F)F)cc1Oc1ccc2nnc(Cl)n2n1` [Cpd.4-130, 3-chloro-6-((2-(2-methoxy-4-methylpyridin-3-yl))-5-(trifluoromethyl)phenoxy)-[1,2,4]triazolo[4,3-b]pyridazine], the melting point was 129 to 132 °C. Further, on Rev-Erb alpha, the EC50 was in the range of 1000 to 6000 nM.

As to `O=C(c1ccccc1)c1cc(Br)ccc1Oc1ccc2nnc(Cl)n2n1` [Cpd.4-145, 3-chloro-6-(4-bromo-2-benzoyl-phenoxy)-[1,2,4]triazolo[4,3-b]pyridazine], the melting point lay within 135 to 137 °C. This molecule also showed an EC50 at Rev-Erb alpha of 1000 to 6000 nM.

On to `COc1ncc(F)cc1-c1ccc(C(F)(F)F)cc1Oc1cc(C)c2nnc(Cl)n2n1` [Cpd.4-193, 3-chloro-8-methyl-6-((2-(2-methoxy-5-fluoropyridin-3-yl))-5-(trifluoromethyl)-phenoxy)-[1,2,4]triazolo[4,3-b]pyridazine], for which the melting point lay within 130 to 132 °C. The EC50 on Rev-Erb alpha fell in the range of 100 to 1000 nM.

The molecule `Clc1ccc(Oc2ccc3nnc(Cl)n3n2)c(-c2ccccc2)c1` [Cpd.4-35, 6-(5-chloro-biphenyl-2-yloxy)-3-chloro-[1,2,4]triazolo[4,3-b]pyridazine] yielded a melting point of 166.2 °C. This molecule also displayed an EC50 on Rev-Erb alpha of 100 to 1000 nM.

As to `CC(NC1CCCCC1)c1ccc(Oc2ccc3nnc(Cl)n3n2)c(-c2ccccc2)c1` (stereo not drawn) [Cpd.4-167, 3-chloro-6-(5-(methyl-cyclohexylaminomethyl)biphenyl-2-yloxy)-[1,2,4]triazolo[4,3-b]pyridazine], the melting point amounted to 50.6 °C.

`FC(F)(F)c1ccc(-c2ccccc2)c(Oc2nn3c(Cl)nnc3cc2C2CC2)c1` [Cpd.5-14, 3-chloro-7-cyclopropyl-6-(4-trifluoromethyl-biphenyl-2-yloxy)-[1,2,4]triazolo[4,3-b]pyridazine] yielded a melting point of 130 to 133 °C.

As for `O=C(O)c1ccc(Oc2ccc3nnc(Cl)n3n2)c(-c2ccccc2)c1` [Cpd.4-59, 3-chloro-6-(5-hydroxycarbonyl-biphenyl-2-yloxy)-[1,2,4]triazolo[4,3-b]pyridazine], the melting point was 266.9 to 267.7 °C.

Regarding `CC(NCCc1ccccc1)c1ccc(Oc2ccc3nnc(Cl)n3n2)c(-c2ccccc2)c1` (stereo not drawn) [Cpd.4-165, 3-chloro-6-(5-(methylphenethylaminomethyl)biphenyl-2-yloxy)-[1,2,4]triazolo[4,3-b]pyridazine], the melting point was 114.3 to 117 °C.

As to `FC(F)(F)c1ccc(-c2cscn2)c(Oc2ccc3nnc(Cl)n3n2)c1` (as salt: potassium) [Cpd.4-106, 3-chloro-6-(2-(thiazol-4-yl)-5-(trifluoromethyl)phenoxy)-[1,2,4]triazolo[4,3-b]pyridazine], the melting point was 191 to 192 °C.

In turn, `COC(=O)c1ccc(Oc2ccc3nnc(Cl)n3n2)c(-c2ccccc2)c1` (as salt: sodium) [Cpd.4-69, 3-chloro-6-(5-methyloxycarbonyl-biphenyl-2-yloxy)-[1,2,4]triazolo[4,3-b]pyridazine] registered a melting point of 75.9 to 78.8 °C.

The molecule `FC(F)(F)c1ccc(-c2ccccc2)c(Oc2cc(-c3ccccc3)c3nnc(Cl)n3n2)c1` [Cpd.5-4, 3-chloro-8-phenyl-6-(4-trifluoromethyl-biphenyl-2-yloxy)-[1,2,4]triazolo[4,3-b]pyridazine] had a melting point of 162 to 164 °C.

Regarding `FC(F)(F)c1ccc(-c2nccs2)c(Oc2ccc3nnc(Cl)n3n2)c1` (as salt: potassium) [Cpd.4-105, 3-chloro-6-(2-(thiazol-2-yl)-5-(trifluoromethyl)phenoxy)-[1,2,4]triazolo[4,3-b]pyridazine], the melting point lay in the range of 171 to 173 °C.

The molecule `CNC(Cc1ccccc1)c1ccc(Oc2ccc3nnc(Cl)n3n2)c(-c2ccccc2)c1` (stereo not drawn) [Cpd.4-158, 3-chloro-6-(5-(benzylmethylaminomethyl)biphenyl-2-yloxy)-[1,2,4]triazolo[4,3-b]pyridazine] displayed a melting point of 60.8 to 62.5 °C.

Molecule `NCc1ccc(-c2ccccc2)c(Oc2ccc3nnc(Cl)n3n2)c1` (as salt: sodium) [Cpd.4-65, 3-chloro-6-(4-aminomethyl-biphenyl-2-yloxy)-[1,2,4]triazolo[4,3-b]pyridazine] displayed a melting point of 164.6 to 167.7 °C.

Consider `COc1cccc(-c2cc(F)ccc2Oc2ccc3nnc(Cl)n3n2)c1` (as salt: sodium) [Cpd.4-76, 3-chloro-6-(5-fluoro-3′ methoxy-biphenyl-2-yloxy)-[1,2,4]triazolo[4,3-b]pyridazine], for which the melting point was in the range of 91.3 to 93.4 °C.

`CC(C)(C)OC(=O)NCc1ccc(Oc2ccc3nnc(Cl)n3n2)c(-c2ccccc2)c1` [Cpd.4-170, 3-chloro-6-(5-(tertbutyloxycarbonylaminomethyl)biphenyl-2-yloxy)-[1,2,4]triazolo[4,3-b]pyridazine]: at Rev-Erb alpha, the EC50 lay in the range of 100 to 1000 nM.

As for `NC(=O)c1cccc(-c2ccc(C(F)(F)F)cc2Oc2ccc3nnc(Cl)n3n2)c1` (as salt: sodium) [Cpd.4-72, 3-chloro-6-(4-trifluoromethyl-3′-aminocarbonyl-biphenyl-2-yloxy)-[1,2,4]triazolo[4,3-b]pyridazine], the melting point was in the range of 217.7 to 220 °C.

On to `COc1ccc(-c2cccc(Oc3ccc4nnc(Cl)n4n3)c2)cc1` [Cpd.3-7, 6-(4′-methoxy-biphenyl-3-yloxy)-3-chloro-[1,2,4]triazolo[4,3-b]pyridazine], for which the concentration giving a half-maximal response (EC50) at Rev-Erb alpha lay within 1000 to 6000 nM.

At Rev-Erb alpha, `COc1ccc(-c2cccc(F)c2)c(Oc2ccc3nnc(Cl)n3n2)c1` [Cpd.4-112, 3-chloro-6-[(3′-fluoro-4-methoxybiphenyl-2-yl)oxy]-[1,2,4]triazolo[4,3-b]pyridazine] gave an EC50 of under 100 nM.

Consider `O=[N+]([O-])c1ccc(Oc2ccc3nnc(Cl)n3n2)c(-c2ccccc2)c1` [Cpd.4-134, 3-chloro-6-(5-nitrobiphenyl-2-yloxy)-[1,2,4]triazolo[4,3-b]pyridazine], for which the EC50 at Rev-Erb alpha was 1000 to 6000 nM.
